Source: publication doi:10.1101/2025.03.24.644576v1 (biorxiv, 2025)

How the values were obtained:
[1] = target: T1, AmRDL receptor (Apis mellifera, UniProt A0A8U0Y4W2, F191A); assay: two-electrode voltage clamp, Xenopus oocytes; assay type: cell-based
T1 sequence (A0A8U0Y4W2 19-476 F191A): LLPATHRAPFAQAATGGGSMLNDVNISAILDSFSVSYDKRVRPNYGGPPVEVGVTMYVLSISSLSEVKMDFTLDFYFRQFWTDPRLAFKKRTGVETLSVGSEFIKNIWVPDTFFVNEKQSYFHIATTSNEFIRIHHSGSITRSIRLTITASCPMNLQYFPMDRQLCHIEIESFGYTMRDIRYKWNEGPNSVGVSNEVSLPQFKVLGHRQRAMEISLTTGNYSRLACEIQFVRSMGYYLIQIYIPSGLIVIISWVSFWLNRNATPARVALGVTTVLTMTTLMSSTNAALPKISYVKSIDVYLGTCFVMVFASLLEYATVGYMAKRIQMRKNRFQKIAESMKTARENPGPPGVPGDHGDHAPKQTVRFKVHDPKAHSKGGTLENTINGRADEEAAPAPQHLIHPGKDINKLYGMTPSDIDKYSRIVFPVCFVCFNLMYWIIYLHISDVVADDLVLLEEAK

[2] = target: T2, AmRDL receptor (Apis mellifera, UniProt A0A8U0Y4W2); assay: two-electrode voltage clamp, Xenopus oocytes; assay type: cell-based
T2 sequence (A0A8U0Y4W2 19-476): T1 sequence (A0A8U0Y4W2 19-476 F191A)

NCCCC(=O)O [GABA]
EC50 [1]: 1000 µM | EC50 [2]: 10 µM
